The values below come from patent EP0044443A1, “Cycloalkano-thiazolyloxamidic-acid derivatives, process for their preparation and pharmaceutical compositions containing them” (BASF Aktiengesellschaft, priority 1980, dated 1982).

The subject of series [1] is passiven cutanen Anaphylaxie (PCA). The series can be described thus: Passive cutaneous anaphylaxis (PCA) in rats sensitised with ovalbumin antiserum. It counts as in vivo, Ratte. Particulars: for inhibition in vivo at 1 mg/kg: ip, read-out: % Hemmung X ± SX; for inhibition in vivo at 1 mg/kg / % Hemmung X ± SX: intraperitoneal, 1 mg/kg test substance, mean ± SX; for mal wirksamer als die Vergleichsverbindung V1 / Hemmung der PCA Ratte R.W. (Relative Wirksamkeit) / ED50: oral administration; for Hemmung der PCA Ratte R.W. (Relative Wirksamkeit): relative to V1 = 1,00; for ED50: Rattus norvegicus, dose reducing diameter of dye spots by 50 % vs untreated controls, read-out: Hemmung der PCA Ratte ED 50 %. The protocol:
Die antiallergische Wirkung wurde an Ratten getestet. Zur ' Prüfung wurde das Modell der passiven cutanen Anaphylaxie (PCA) verwendet.
Narkotisierte männliche Ratten (100 bis 140 g) werden durch intradermale Injektion (rasierte Rückenhaut) von 0,1 ml eines Ovalbumin-Antiserums sensibilisiert. Nach einer Sensibilisierungsperiode von ca. 48 Stunden erfolgt die Behandlung (intraperitoneale bzw. orale Applikation) mit unterschiedlichen Dosierungen (10 Tiere/Dosis) der Prüfsubstanzen. 15 bis 20 Minuten nach der Behandlung wird eine Antigen/Evansblau-Hischung (10 mg/kg Ovalbumin in 2 %iger Evansblau-Lösung) den Versuchstieren intravenös injiziert. 30 Minuten später werden die Tiere getötet, die Rückenhaut abgezogen und auf der inneren Oberfläche der Durchmesser der kreisförmigen Blaufärbung gemessen. Die Größe der Farbflecke unbehandelter Kontrolltiere ist standardisierbar. Antiallergisch wirksame Substanzen verkleinern dosisabhängig den Durchmesser der Farbflecke. Als ED 50 % wird die Dosis angegeben die im Vergleich zu medikamentös unbehandelten Kontrolltieren den Durchmesser der Farbflecke um 50 % herabsetzt.

Series [2] is described as follows: Acute toxicity, mouse, intraperitoneal. The note with it: in vivo, ip, read-out: LD 50 Maus i.p. From the text:
(§1) Außer der antiallergischen Wirkung wurde die akute Toxizität an Gruppen von je 2 NMRI-Mäusen, Gewicht 20 bis 26 g, bei intraperitonealer Applikation und an je 2 Sprangue--Dawley-Ratten, Gewicht 120 bis 150 g, bei oraler Applikation ermittelt. Die Bestimmung der LD 50 erfolgte an Gruppen von je 10 NMRI-Mäusen, Gewicht 20 bis 26 g,nach intraperitonealer Applikation. Die Nachbeobachtungszeit betrug 14 Tage.

The nature of series [3]: Acute toxicity, rat, oral. The note with it: in vivo, read-out: LD 50 Ratte p.o.
Excerpt: as §1

The nature of series [4]: Water solubility (remark in synthesis example). It counts as physicochemical.
Setting [5] is: Sprague-Dawley rats, oral, 14 days observation.
The mark [6] stands for this setting: NMRI mice, intraperitoneal, 14 days observation.

As for `CCOC(=O)C(=O)Nc1nc2c(s1)CCCCC2` [Beispiel 5, N-(Cycloheptano[1,2-d]thiazol-2-yl)oxamidsäureethylester], the inhibition in vivo at 1 mg/kg in series [1] (PCA rat) worked out at 34 ± 6%.
In the case of “N-(6-tert.-Butylcyclohexano[1,2-d]thiazol-2-yl)-oxamidsäureethylester [Beispiel 3]”, the “% Hemmung X ± SX” value in series [1] (PCA rat) is given as 14 ± 4,1%.
Consider `CCOC(=O)C(=O)Nc1nc2c(s1)CCCC2` [Beispiel 2, N-(Cyclohexano[1,2-d]thiazol-2-yl)-oxamidsäureethylester], for which the LD50 at 336 h in series [2] is 422 mg/kg; in series [3] (po), > 2150 mg/kg. In addition, the inhibition in vivo at 1 mg/kg in series [1] (PCA rat) is 61 ± 8.8%. Also, the “mal wirksamer als die Vergleichsverbindung V1” value in series [1] (PCA rat) is 11.9. The “Hemmung der PCA Ratte R.W. (Relative Wirksamkeit)” value in series [1] is 11,90.
For the compound `O=C(O)C(=O)Nc1nc2c(s1)CCCC2` [Beispiel 6, N-(Cyclohexano[1,2-d]thiazol-2-yl)-oxamidsäure], the LD50 at 336 h in series [2] is ~464 mg/kg. Besides, in series [1], the ED50 was found to be 3.09 mg/kg and the “Hemmung der PCA Ratte R.W. (Relative Wirksamkeit)” value is listed as 2,78. For the same compound, in series [1] (PCA rat), the inhibition in vivo at 1 mg/kg turned out to be 63 ± 6.6% and the “mal wirksamer als die Vergleichsverbindung V1” value is 2,8. Besides, the LD50 at 336 h in series [3] (po) is > 2150 mg/kg.
In the case of `O=C(O)c1cc(=O)c2c(OCC(O)COc3cccc4oc(C(=O)O)cc(=O)c34)cccc2o1` [Cromolyne, reference compound], the “antiallergische Wirkung nach oraler Applikation” value in series [1] (PCA rat, up to 100 mg/kg p.o.) is “unwirksam”. Further, the ED50 in series [1] stood at 100 mg/kg. The inhibition in vivo at 1 mg/kg in series [1] (PCA rat) was found to be 21 ± 3.6%. For the same compound, in series [3] (setting [5]), the LD50 at 336 h is > 2150 mg/kg.
Take “N-(Cyclohexano[1,2-d]thiazol-2-yl)-oxamidsäure-ethanol- aminsalz [Beispiel 8]”: the Wasserlöslichkeit result in series [4] is “gut wasserlöslichen”. For the same compound, the “% Hemmung X ± SX” value in series [1] (PCA rat) was 73 ± 7,5%.
Regarding `CC(C)(C)OC(=O)C(=O)Nc1nc2c(s1)CCCC2` [Beispiel 7], in series [1], the ED50 worked out at 2.35 mg/kg and the “Hemmung der PCA Ratte R.W. (Relative Wirksamkeit)” value was 3,65. Besides, in series [1] (PCA rat), the inhibition in vivo at 1 mg/kg was 33 ± 7.9%. Also, in series [3] (setting [5]), the LD50 at 336 h is > 2150 mg/kg.
Take `CCOC(=O)C(=O)Nc1nc2ccccc2s1` [V1, N-Benzthiazol-2-yl-oxamidsäureethylester, reference compound]: in series [2] (setting [6]), the LD50 at 336 h is ~464 mg/kg. In series [1], the ED50 was found to be 8.6 mg/kg and the “Hemmung der PCA Ratte R.W. (Relative Wirksamkeit)” value was 1,00. In addition, in series [1] (PCA rat), the inhibition in vivo at 1 mg/kg worked out at 26 ± 6.5%. Further, in series [3] (setting [5]), the LD50 at 336 h is > 2150 mg/kg.
`CCOC(=O)C(=O)Nc1nc2c(s1)CCC2` [Beispiel 1, N-(Cyclopentano[1,2-d]thiazol-2-yl)-oxamidsäureethylester]: the LD50 at 336 h in series [2] (setting [6]) is ~464 mg/kg. Besides, in series [1], the ED50 was found to be 1.59 mg/kg and the “Hemmung der PCA Ratte R.W. (Relative Wirksamkeit)” value is listed as 5,40. Besides, the inhibition in vivo at 1 mg/kg in series [1] (PCA rat) is 25 ± 4.7%. The LD50 at 336 h in series [3] (setting [5]) was > 2150 mg/kg.
Take `CCOC(=O)C(=O)Nc1nc2c(s1)C(C)(C)CC(C)(C)C2` [Beispiel 4, N-(5,5,7,7-Tetramethylcyclohexano[1,2-d]thiazol-2-yl)-oxamidsäureethylester]: the inhibition in vivo at 1 mg/kg in series [1] (PCA rat) is 15 ± 3.5%.
